Experimental data: patent US10028952B2, “Methods of treating diabetes or obesity using bile acids, bile salts, and mimics thereof” (SATIOGEN PHARMACEUTICALS, INC., priority 2008, dated 2018)
Like-named read-outs stand apart in the source and are kept apart here.

What was measured:
TGR5 = target: T1, TGR5 (Homo sapiens, UniProt Q8TDU6); settings: TGR5-transfected CHO cells; more potent than the named bile acid; cited from earlier work
T1 construct: expressed in transfected cells; host or cells: CHO cells
T1 sequence (Q8TDU6 1-330): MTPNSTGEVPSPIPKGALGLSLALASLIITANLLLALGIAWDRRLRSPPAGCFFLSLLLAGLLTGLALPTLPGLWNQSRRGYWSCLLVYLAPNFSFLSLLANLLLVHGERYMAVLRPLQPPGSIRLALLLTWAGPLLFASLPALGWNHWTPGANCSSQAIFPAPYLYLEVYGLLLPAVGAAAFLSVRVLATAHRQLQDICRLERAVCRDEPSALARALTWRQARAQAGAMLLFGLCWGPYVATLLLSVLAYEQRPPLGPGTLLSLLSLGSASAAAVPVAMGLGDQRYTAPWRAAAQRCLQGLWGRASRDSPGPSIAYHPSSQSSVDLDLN

[1] = tested on: overnight-fasted Sprague Dawley rats; settings: 500 mM sodium taurocholate, 3 mL rectal gel, 1% methyl cellulose, over 6 hours
Experimental: Using a stainless steel dissolving vessel fitted with a propeller stirrer 1 gram of methyl cellulose is dissolved in 100 mL of purified water and stirred for 15 minutes. 5 syringes connected to gavage tubes are then each filled with 3 mL of the composition.
The sodium taurocholate rectal gel described above was rectally administered to 6 conscious overnight-fasted subjects (e.g., Sprague Dawley rats) and the control rectal gel without the sodium taurocholate was rectally administered to 5 conscious overnight-fasted subjects (e.g., Sprague Dawley rats). Each rat was then exposed to pre-weighed food and the cumulative consumption of the food was determined over a 6 hour period by weighing the food after 30 minutes, 60 minutes, 120 minutes, 240 minutes and 360 minutes.

[2] = tested on: overnight-fasted Sprague Dawley rats
Experimental: Using a stainless steel dissolving vessel fitted with a propeller stirrer 1 gram of methyl cellulose is dissolved in 100 mL of purified water and stirred for 15 minutes. 12 syringes connected to gavage tubes are then each filled with 3 mL of the composition.
A 4×4 Latin Square design is used to monitor the effect of the different concentration of taurocholate on the food uptake of overnight-fasted Sprague Dawley rats. Each concentration is tested in triplicate with four rats used per replicate.
The ED50 for inhibition of food intake is obtained by plotting the normalizing the dose response for the anorectic effect of taurocholate to the control data as a log of taurocholate dose vs the percentage of control cumulative intake (FIG. 7).

obese human diabetics = settings: rectal, 0.66-20.0 mmoles in 20 ml 1% carboxymethyl cellulose gel, after 100 mg sitagliptin
Experimental: Studies were undertaken after an overnight fast following administration (8-10 hours prior to bile salt) of 100 mg sitagliptin, a DPP-4 inhibitor that protects GLP-1 from inactivation by proteolysis. […] The taurocholic acid was administered into the rectum by syringe in a total volume of 20 ml of 1% carboxymethyl cellulose gel. Each dose was administered on a different day with at least three days between doses.

[3] = 50, 150, 500 mM rectal gels, 3 mL

Structure (SMILES)	rank of potency (TGR5 agonist potency) (TGR5)	cumulative food intake compared to rats instilled with gel alone [1]	cumulative food intake, relation to quantity administered [2, 3]	time for which differences in food uptake are maintained [2, 3]	ED50 for inhibition of food intake ([2]; 24 hour intake, rectal gel)	ED50 for inhibition of food intake ([2]; at 1 hour, 3 mL doses, rectal gel)	ED50 for inhibition of food intake ([2]; at 1 hour, rectal gel)	dose dependency for inhibition of intake between 8 and 24 hours ([2]; rectal gel)	circulating GLP-1 levels (obese human diabetics)	circulating PYY levels (obese human diabetics)
C[C@H](CCC(=O)O)[C@H]1CC[C@H]2[C@@H]3[C@H](O)C[C@@H]4C[C@H](O)CC[C@]4(C)[C@H]3C[C@H](O)[C@]12C [CA, cholic acid]	> hyodeoxycholic acid (HDCA									
C[C@H](CCC(=O)NCCS(=O)(=O)O)[C@H]1CC[C@H]2[C@@H]3[C@H](O)C[C@@H]4C[C@H](O)CC[C@]4(C)[C@H]3C[C@H](O)[C@]12C [taurocholate, taurocholic acid]		reduced	dose dependently related	at least 24 hours	7.2 mmol/rat	528 mM	1.6 mmol/rat	not different	increase	increase
